Among the data in patent US20160200733A1, “SUBSTITUTED THIENO[2,3-B]PYRIDINE-2-CARBOXAMIDE ANALOGS AS POSITIVE ALLOSTERIC MODULATORS OF THE MUSCARINIC ACETYLCHOLINE RECEPTOR M4” (Vanderbilt University, priority 2013, published 2016) are Emax and EC50 values, retold here.

For orientation: Emax means the greatest response seen or fitted, relative to the assay's reference. For orientation: EC50 means the concentration needed to bring the measured effect to its halfway point.

Molecules are shown by their SMILES. Bounds are passed on as bounds.

The first assay concerns the target T1, mAChR hM4 (Homo sapiens, UniProt P08173).
T1 construct: expressed in transfected cells; host or cells: CHO-K1 (Chinese hamster ovary) cells
T1 sequence (P08173 1-479): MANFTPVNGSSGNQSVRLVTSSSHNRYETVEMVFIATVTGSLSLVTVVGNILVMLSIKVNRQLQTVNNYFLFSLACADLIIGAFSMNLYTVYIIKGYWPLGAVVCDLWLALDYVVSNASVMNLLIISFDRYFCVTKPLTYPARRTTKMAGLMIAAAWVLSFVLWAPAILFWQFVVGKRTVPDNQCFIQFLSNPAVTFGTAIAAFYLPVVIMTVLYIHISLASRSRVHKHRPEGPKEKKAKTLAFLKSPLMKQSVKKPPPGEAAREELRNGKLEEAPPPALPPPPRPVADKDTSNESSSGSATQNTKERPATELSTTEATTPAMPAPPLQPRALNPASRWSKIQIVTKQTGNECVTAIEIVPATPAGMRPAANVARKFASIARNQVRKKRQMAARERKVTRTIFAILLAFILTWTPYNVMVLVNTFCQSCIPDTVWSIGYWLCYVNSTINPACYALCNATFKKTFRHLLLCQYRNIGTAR
As to the kind of experiment: mAChR M4 cell-based functional assay (calcium flux, potentiation of EC20 acetylcholine response). Particulars: % ACh maximum at 30 μM; mAChR hM4 cell-line. An outline of the steps: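 CHO-K1 cells expressing human M4, loaded with Fluo-4 Ca2+ dye; potentiation of an EC20 acetylcholine response read as increase in fluorescence static ratio. EC50 and Emax from concentration-dependent increase over the EC20 response.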
Turning to `Cc1cnc2sc(C(=O)NCc3ccc(-c4cccnc4F)cc3)cc2c1C` [Compound 101, N-(4-(2-fluoropyridin-3-yl)benzyl)-4,5-dimethylthieno[2,3-b]pyridine-2-carboxamide], the Emax at 30 µM is 41%.

Regarding `Cc1cnc2sc(C(=O)NC3COC3)cc2c1C` [Compound 102, 4,5-dimethyl-N-(oxetan-3-yl)thieno[2,3-b]pyridine-2-carboxamide], the Emax at 30 µM amounted to 60%.

For `Cc1cnc2sc(C(=O)NC3CN(c4cccnc4)C3)cc2c1C` [Compound 103, 4,5-dimethyl-N-(1-(pyridin-3-yl)azetidin-3-yl)thieno[2,3-b]pyridine-2-carboxamide], the Emax at 30 µM is 76%.

The assay is the same for the next values; noted with them: mAChR hM4 cell-line; >10,000 estimated for low potency compounds lacking a plateau.
Turning to `Cc1nc2sc(C(=O)NC3CCOC3)c(-c3cnn(C)c3)c2c(C)c1Cl` (stereo not drawn) [Compound 91, 5-chloro-4,6-dimethyl-3-(1-methyl-1H-pyrazol-4-yl)-N-(tetrahydrofuran-3-yl)thieno[2,3-b]pyridine-2-carboxamide], the EC50 was above 10 µM.

On to `Cc1nc2sc(C(=O)NC3CN(c4cccnc4)C3)c(-c3cnn(C)c3)c2c(C)c1Cl` [Compound 92, 5-chloro-4,6-dimethyl-3-(1-methyl-1H-pyrazol-4-yl)-N-(1-(pyridin-3-yl)azetidin-3-yl)thieno[2,3-b]pyridine-2-carboxamide], for which the half-maximal effective concentration (EC50) was above 10 µM.

On to `Cc1nc2sc(C(=O)NC3C4CC5CC(C4)CC3C5)c(-c3cnn(C)c3)c2c(C)c1Cl` (stereo not drawn) [Compound 93, N-(adamantan-2-yl)-5-chloro-4,6-dimethyl-3-(1-methyl-1H-pyrazol-4-yl)thieno[2,3-b]pyridine-2-carboxamide], for which the EC50 was above 10 µM.

Regarding `Cc1nc2sc(C(=O)NC3[C@H]4C[C@H]3C4)c(-c3cnn(C)c3)c2c(C)c1Cl` (stereo partly drawn) [Compound 94, N-((1R,3S)-bicyclo[1.1.1]pentan-2-yl)-5-chloro-4,6-dimethyl-3-(1-methyl-1H-pyrazol-4-yl)thieno[2,3-b]pyridine-2-carboxamide], the concentration for a half-maximal effect (EC50) is above 10 µM.

As to `Cc1nc2sc(C(=O)NCc3ccc(S(=O)(=O)C(F)(F)F)cc3)c(-c3cnn(C)c3)c2c(C)c1Cl` [Compound 95, 5-chloro-4,6-dimethyl-3-(1-methyl-1H-pyrazol-4-yl)-N-(4-((trifluoromethyl)sulfonyl)benzyl)thieno[2,3-b]pyridine-2-carboxamide], the EC50 was above 10 µM.

On to `Cc1nc2sc(C(=O)N[C@H](C)C3CC3)c(-c3cnn(C)c3)c2c(C)c1Cl` [Compound 96, (R)-5-chloro-N-(1-cyclopropylethyl)-4,6-dimethyl-3-(1-methyl-1H-pyrazol-4-yl)thieno[2,3-b]pyridine-2-carboxamide], for which the EC50 is above 10 µM.

As for `Cc1nc2sc(C(=O)N3CCC3)c(-c3cnn(C)c3)c2c(C)c1Cl` [Compound 97, azetidin-1-yl(5-chloro-4,6-dimethyl-3-(1-methyl-1H-pyrazol-4-yl)thieno[2,3-b]pyridin-2-yl)methanone], the EC50 was above 10 µM.

Consider `Cc1nc2sc(C(=O)NCc3cnn(-c4ccccc4)c3)c(-c3cnn(C)c3)c2c(C)c1Cl` [Compound 98, 5-chloro-4,6-dimethyl-3-(1-methyl-1H-pyrazol-4-yl)-N-((1-phenyl-1H-pyrazol-4-yl)methyl)thieno[2,3-b]pyridine-2-carboxamide], for which the EC50 is above 10 µM.

In the case of `COc1ccc(CNC(=O)c2sc3nc(C)c(Cl)c(C)c3c2-c2cnn(C)c2)cc1F` [Compound 99, 5-chloro-N-(3-fluoro-4-methoxybenzyl)-4,6-dimethyl-3-(1-methyl-1H-pyrazol-4-yl)thieno[2,3-b]pyridine-2-carboxamide], the EC50 is above 10 µM.

Regarding `Cc1cnc2sc(C(=O)NC3CN(c4ccc(C(F)(F)F)nc4)C3)cc2c1C` [Compound 100, 4,5-dimethyl-N-(1-(6-(trifluoromethyl)pyridin-3-yl)azetidin-3-yl)thieno[2,3-b]pyridine-2-carboxamide], the EC50 was above 10 µM.

With `Cc1cnc2sc(C(=O)NCc3ccc(-c4cccnc4F)cc3)cc2c1C` [Compound 101, N-(4-(2-fluoropyridin-3-yl)benzyl)-4,5-dimethylthieno[2,3-b]pyridine-2-carboxamide], the EC50 was 2.7 µM.

Turning to `Cc1cnc2sc(C(=O)NC3COC3)cc2c1C` [Compound 102, 4,5-dimethyl-N-(oxetan-3-yl)thieno[2,3-b]pyridine-2-carboxamide], the EC50 is above 10 µM.

For the compound `Cc1cnc2sc(C(=O)NC3CN(c4cccnc4)C3)cc2c1C` [Compound 103, 4,5-dimethyl-N-(1-(pyridin-3-yl)azetidin-3-yl)thieno[2,3-b]pyridine-2-carboxamide], the EC50 was 0.58 µM.

As for `Cc1cnc2sc(C(=O)NCc3ccc(-c4ccnnc4)s3)cc2c1C` [Compound 104, 4,5-dimethyl-N-((5-(pyridazin-4-yl)thiophen-2-yl)methyl)thieno[2,3-b]pyridine-2-carboxamide], the EC50 was above 10 µM.

As to `Cc1nc2sc(C(=O)NCC3CCC3)c(-c3cnn(C)c3)c2c(C)c1Cl` [Compound 105, 5-chloro-N-(cyclobutylmethyl)-4,6-dimethyl-3-(1-methyl-1H-pyrazol-4-yl)thieno[2,3-b]pyridine-2-carboxamide], the EC50 was above 10 µM.

On to `Cc1nc2sc(C(=O)N3CCCOCC3)c(-c3cnn(C)c3)c2c(C)c1Cl` [Compound 106, (5-chloro-4,6-dimethyl-3-(1-methyl-1H-pyrazol-4-yl)thieno[2,3-b]pyridin-2-yl)(1,4-oxazepan-4-yl)methanone], for which the EC50 is above 10 µM.

With `Cc1nc2sc(C(=O)N3CCN(C)CC3)c(-c3cnn(C)c3)c2c(C)c1Cl` [Compound 107, (5-chloro-4,6-dimethyl-3-(1-methyl-1H-pyrazol-4-yl)thieno[2,3-b]pyridin-2-yl)(4-methylpiperazin-1-yl)methanone], the EC50 was above 10 µM.

Regarding `Cc1nc2sc(C(=O)N3CCC(F)(F)CC3)c(-c3cnn(C)c3)c2c(C)c1Cl` [Compound 108, (5-chloro-4,6-dimethyl-3-(1-methyl-1H-pyrazol-4-yl)thieno[2,3-b]pyridin-2-yl)(4,4-difluoropiperidin-1-yl)methanone], the EC50 was above 10 µM.

As to `Cc1nc2sc(C(=O)N3CC4C(C3)C4(C)C)c(-c3cnn(C)c3)c2c(C)c1Cl` (stereo not drawn) [Compound 109, (5-chloro-4,6-dimethyl-3-(1-methyl-1H-pyrazol-4-yl)thieno[2,3-b]pyridin-2-yl)(6,6-dimethyl-3-azabicyclo[3.1.0]hexan-3-yl)methanone], the EC50 was above 10 µM.

For `Cc1nc2sc(C(=O)N3CCOCC3)c(-c3cnn(C)c3)c2c(C)c1Cl` [Compound 110, (5-chloro-4,6-dimethyl-3-(1-methyl-1H-pyrazol-4-yl)thieno[2,3-b]pyridin-2-yl)(morpholino)methanone], the EC50 is above 10 µM.

With `Cc1nc2sc(C(=O)N[C@@H](C)C3CC3)c(-c3cnn(C)c3)c2c(C)c1Cl` [Compound 111, (S)-5-chloro-N-(1-cyclopropylethyl)-4,6-dimethyl-3-(1-methyl-1H-pyrazol-4-yl)thieno[2,3-b]pyridine-2-carboxamide], the 50% effective concentration (EC50) was above 10 µM.

For `Cc1nc2sc(C(=O)NCC3CC3)c(-c3cnn(C)c3)c2c(C)c1Cl` [Compound 112, 5-chloro-N-(cyclopropylmethyl)-4,6-dimethyl-3-(1-methyl-1H-pyrazol-4-yl)thieno[2,3-b]pyridine-2-carboxamide], the EC50 is above 10 µM.

In the case of `Cc1nc2sc(C(=O)N3CCCN(C)CC3)c(-c3cnn(C)c3)c2c(C)c1Cl` [Compound 113, (5-chloro-4,6-dimethyl-3-(1-methyl-1H-pyrazol-4-yl)thieno[2,3-b]pyridin-2-yl)(4-methyl-1,4-diazepan-1-yl)methanone], the concentration for a half-maximal effect (EC50) is above 10 µM.

`Cc1nc2sc(C(=O)NC3COC3)c(-c3ccc4nonc4c3)c2c(C)c1Cl` [Compound 114, 3-(benzo[c][1,2,5]oxadiazol-5-yl)-5-chloro-4,6-dimethyl-N-(oxetan-3-yl)thieno[2,3-b]pyridine-2-carboxamide]: the EC50 is above 10 µM.
